16 compounds from ChEMBL document CHEMBL5316338, “Discovery of Novel PTP1B Inhibitors with Once-Weekly Therapeutic Potential for Type 2 Diabetes: Design, Synthesis, and In Vitro and In Vivo Investigations of BimBH3 Peptide Analogues” (J Med Chem, 2023) can be followed below.

Numbered stars: 1 amine (or outer) side, 2 acyl side, 3 side chain; on linkers, the order of the positions; unused ones are H or OH. Square brackets hold non-standard residues; d marks the D form. Peptide text beside a SMILES is read from it. * marks the point of attachment. ξ: configuration not given here. C18 diacid = O=C(O)CCCCCCCCCCCCCCCCC(=O)*; γGlu = O=C(O)[C@H](CCC(=O)[*:2])N[*:1]; C14 diacid = O=C(O)CCCCCCCCCCCCC(=O)*; Pentanoyl(5-Ph) = O=C(CCCCc1ccccc1)*; Adipoyl = O=C(CCCCC(=O)[*:2])[*:1]; Glutaryl = O=C(CCCC(=O)[*:2])[*:1]; HOOC(CH2)6CO = O=C(O)CCCCCCC(=O)*; Malonyl = O=C(CC(=O)[*:2])[*:1]; ξR = N=C(N)NCCCC(N)C(=O)O; Heptanoyl = CCCCCCC(=O)*; Octanoyl = CCCCCCCC(=O)*; Aun = NCCCCCCCCCCC(=O)O; Hexanoyl = CCCCCC(=O)*; Pentanoyl = CCCCC(=O)*; AEEA = NCCOCCOCC(=O)O; Propionyl = CCC(=O)*; Butyryl = CCCC(=O)*

This experiment addresses T1, Tyrosine-protein phosphatase non-receptor type 1 (Homo sapiens) (UniProt P18031).
T1 sequence (whole entry): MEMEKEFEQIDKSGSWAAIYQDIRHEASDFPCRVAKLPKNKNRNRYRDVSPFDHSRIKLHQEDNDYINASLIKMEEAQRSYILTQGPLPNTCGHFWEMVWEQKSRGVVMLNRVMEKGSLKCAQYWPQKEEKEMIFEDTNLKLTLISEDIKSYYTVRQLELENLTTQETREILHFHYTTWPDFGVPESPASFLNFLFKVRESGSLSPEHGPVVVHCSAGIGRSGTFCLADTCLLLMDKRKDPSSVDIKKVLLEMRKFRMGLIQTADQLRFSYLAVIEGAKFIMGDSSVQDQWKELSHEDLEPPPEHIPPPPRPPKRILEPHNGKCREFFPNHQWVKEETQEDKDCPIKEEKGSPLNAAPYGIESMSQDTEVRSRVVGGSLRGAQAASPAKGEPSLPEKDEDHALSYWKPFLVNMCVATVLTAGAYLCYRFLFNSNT
Nature of the experiment: Inhibition of N-terminal His tagged recombinant human PTP1B expressed in Escherichia coli using pNPP as substrate assessed as substrate hydrolysis at 40 umol/L relative to control. The following applies: dose 40.0 µmol/L.
Regarding `CC[C@H](C)[C@H](NC(=O)CC(=O)O)C(=O)N[C@@H](C)C(=O)N[C@@H](CCC(N)=O)C(=O)N[C@@H](CCC(=O)O)C(=O)N[C@@H](CC(C)C)C(=O)N[C@@H](CCCNC(=N)N)C(=O)N[C@@H](CCCNC(=N)N)C(=O)N[C@H](C(=O)NCC(=O)N[C@@H](CC(=O)O)C(=O)N[C@@H](CCC(=O)O)C(=O)N[C@@H](Cc1ccccc1)C(=O)O)[C@@H](C)CC` (Malonyl-IAQELRRIGDEF-OH), the inhibition is less than 50%.

On to `CC[C@H](C)[C@H](NC(=O)CCCC(=O)O)C(=O)N[C@@H](C)C(=O)N[C@@H](CCC(N)=O)C(=O)N[C@@H](CCC(=O)O)C(=O)N[C@@H](CC(C)C)C(=O)N[C@@H](CCCNC(=N)N)C(=O)N[C@@H](CCCNC(=N)N)C(=O)N[C@H](C(=O)NCC(=O)N[C@@H](CC(=O)O)C(=O)N[C@@H](CCC(=O)O)C(=O)N[C@@H](Cc1ccccc1)C(=O)O)[C@@H](C)CC` (Glutaryl-IAQELRRIGDEF-OH), for which the inhibition was less than 50%.

As for `CC[C@H](C)[C@H](NC(=O)CCCCCCCCCCCCC(=O)O)C(=O)N[C@@H](C)C(=O)N[C@@H](CCC(N)=O)C(=O)N[C@@H](CCC(=O)O)C(=O)N[C@@H](CC(C)C)C(=O)N[C@@H](CCCNC(=N)N)C(=O)NC(CCCNC(=N)N)C(=O)N[C@H](C(=O)NCC(=O)N[C@@H](CC(=O)O)C(=O)N[C@@H](CCC(=O)O)C(=O)N[C@@H](Cc1ccccc1)C(=O)O)[C@@H](C)CC` (stereo partly specified) ({C14 diacid}-IAQELR[ξR]IGDEF-OH), the inhibition is less than 50%.

As for `CCCC(=O)N[C@H](C(=O)N[C@@H](C)C(=O)N[C@@H](CCC(N)=O)C(=O)N[C@@H](CCC(=O)O)C(=O)N[C@@H](CC(C)C)C(=O)N[C@@H](CCCNC(=N)N)C(=O)N[C@@H](CCCNC(=N)N)C(=O)N[C@H](C(=O)NCC(=O)N[C@@H](CC(=O)O)C(=O)N[C@@H](CCC(=O)O)C(=O)N[C@@H](Cc1ccccc1)C(=O)O)[C@@H](C)CC)[C@@H](C)CC` (Butyryl-IAQELRRIGDEF-OH), the inhibition is less than 50%.

Take `CCC(=O)N[C@H](C(=O)N[C@@H](C)C(=O)N[C@@H](CCC(N)=O)C(=O)N[C@@H](CCC(=O)O)C(=O)N[C@@H](CC(C)C)C(=O)N[C@@H](CCCNC(=N)N)C(=O)N[C@@H](CCCNC(=N)N)C(=O)N[C@H](C(=O)NCC(=O)N[C@@H](CC(=O)O)C(=O)N[C@@H](CCC(=O)O)C(=O)N[C@@H](Cc1ccccc1)C(=O)O)[C@@H](C)CC)[C@@H](C)CC` (Propionyl-IAQELRRIGDEF-OH): the inhibition is less than 50%.

Turning to `CC[C@H](C)[C@H](NC(=O)CCCCc1ccccc1)C(=O)N[C@@H](C)C(=O)N[C@@H](CCC(N)=O)C(=O)N[C@@H](CCC(=O)O)C(=O)N[C@@H](CC(C)C)C(=O)N[C@@H](CCCNC(=N)N)C(=O)N[C@@H](CCCNC(=N)N)C(=O)N[C@H](C(=O)NCC(=O)N[C@@H](CC(=O)O)C(=O)N[C@@H](CCC(=O)O)C(=O)N[C@@H](Cc1ccccc1)C(=O)O)[C@@H](C)CC` ({Pentanoyl(5-Ph)}-IAQELRRIGDEF-OH), the inhibition is less than 50%.

Take `CC[C@H](C)[C@H](NC(=O)CCCCCCCCCCN)C(=O)N[C@@H](C)C(=O)N[C@@H](CCC(N)=O)C(=O)N[C@@H](CCC(=O)O)C(=O)N[C@@H](CC(C)C)C(=O)N[C@@H](CCCNC(=N)N)C(=O)N[C@@H](CCCNC(=N)N)C(=O)N[C@H](C(=O)NCC(=O)N[C@@H](CC(=O)O)C(=O)N[C@@H](CCC(=O)O)C(=O)N[C@@H](Cc1ccccc1)C(=O)O)[C@@H](C)CC` (H-[Aun]IAQELRRIGDEF-OH): the inhibition is less than 50%.

Regarding `CC[C@H](C)[C@H](NC(=O)CCCCCCC(=O)O)C(=O)N[C@@H](C)C(=O)N[C@@H](CCC(N)=O)C(=O)N[C@@H](CCC(=O)O)C(=O)N[C@@H](CC(C)C)C(=O)N[C@@H](CCCNC(=N)N)C(=O)N[C@@H](CCCNC(=N)N)C(=O)N[C@H](C(=O)NCC(=O)N[C@@H](CC(=O)O)C(=O)N[C@@H](CCC(=O)O)C(=O)N[C@@H](Cc1ccccc1)C(=O)O)[C@@H](C)CC` ({HOOC(CH2)6CO}-IAQELRRIGDEF-OH), the inhibition is less than 50%.

Ac-IAQELRRIGDEF-OH: the inhibition was less than 50%.

As for `CCCCCCCC(=O)N[C@H](C(=O)N[C@@H](C)C(=O)N[C@@H](CCC(N)=O)C(=O)N[C@@H](CCC(=O)O)C(=O)N[C@@H](CC(C)C)C(=O)N[C@@H](CCCNC(=N)N)C(=O)N[C@@H](CCCNC(=N)N)C(=O)N[C@H](C(=O)NCC(=O)N[C@@H](CC(=O)O)C(=O)N[C@@H](CCC(=O)O)C(=O)N[C@@H](Cc1ccccc1)C(=O)O)[C@@H](C)CC)[C@@H](C)CC` (Octanoyl-IAQELRRIGDEF-OH), the inhibition was less than 50%.

On to `CCCCC(=O)N[C@H](C(=O)N[C@@H](C)C(=O)N[C@@H](CCC(N)=O)C(=O)N[C@@H](CCC(=O)O)C(=O)N[C@@H](CC(C)C)C(=O)N[C@@H](CCCNC(=N)N)C(=O)N[C@@H](CCCNC(=N)N)C(=O)N[C@H](C(=O)NCC(=O)N[C@@H](CC(=O)O)C(=O)N[C@@H](CCC(=O)O)C(=O)N[C@@H](Cc1ccccc1)C(=O)O)[C@@H](C)CC)[C@@H](C)CC` (Pentanoyl-IAQELRRIGDEF-OH), for which the inhibition was less than 50%.

Turning to `CCCCCC(=O)N[C@H](C(=O)N[C@@H](C)C(=O)N[C@@H](CCC(N)=O)C(=O)N[C@@H](CCC(=O)O)C(=O)N[C@@H](CC(C)C)C(=O)N[C@@H](CCCNC(=N)N)C(=O)N[C@@H](CCCNC(=N)N)C(=O)N[C@H](C(=O)NCC(=O)N[C@@H](CC(=O)O)C(=O)N[C@@H](CCC(=O)O)C(=O)N[C@@H](Cc1ccccc1)C(=O)O)[C@@H](C)CC)[C@@H](C)CC` (Hexanoyl-IAQELRRIGDEF-OH), the inhibition is less than 50%.

Consider `CCCCCCC(=O)N[C@H](C(=O)N[C@@H](C)C(=O)N[C@@H](CCC(N)=O)C(=O)N[C@@H](CCC(=O)O)C(=O)N[C@@H](CC(C)C)C(=O)N[C@@H](CCCNC(=N)N)C(=O)N[C@@H](CCCNC(=N)N)C(=O)N[C@H](C(=O)NCC(=O)N[C@@H](CC(=O)O)C(=O)N[C@@H](CCC(=O)O)C(=O)N[C@@H](Cc1ccccc1)C(=O)O)[C@@H](C)CC)[C@@H](C)CC` (Heptanoyl-IAQELRRIGDEF-OH), for which the inhibition is less than 50%.

Regarding `CC[C@H](C)[C@H](NC(=O)CCCCC(=O)O)C(=O)N[C@@H](C)C(=O)N[C@@H](CCC(N)=O)C(=O)N[C@@H](CCC(=O)O)C(=O)N[C@@H](CC(C)C)C(=O)N[C@@H](CCCNC(=N)N)C(=O)N[C@@H](CCCNC(=N)N)C(=O)N[C@H](C(=O)NCC(=O)N[C@@H](CC(=O)O)C(=O)N[C@@H](CCC(=O)O)C(=O)N[C@@H](Cc1ccccc1)C(=O)O)[C@@H](C)CC` (Adipoyl-IAQELRRIGDEF-OH), the inhibition was less than 50%.

Regarding `CC[C@H](C)[C@H](NC(=O)COCCOCCNC(=O)COCCOCCNC(=O)CC[C@H](NC(=O)CCCCCCCCCCCCCCCCC(=O)O)C(=O)O)C(=O)N[C@@H](C)C(=O)N[C@@H](CCC(N)=O)C(=O)N[C@@H](CCC(=O)O)C(=O)N[C@@H](CC(C)C)C(=O)N[C@@H](CCCNC(=N)N)C(=O)N[C@@H](CCCNC(=N)N)C(=O)N[C@H](C(=O)NCC(=O)N[C@@H](CC(=O)O)C(=O)N[C@@H](CCC(=O)O)C(=O)N[C@@H](Cc1ccccc1)C(=O)O)[C@@H](C)CC` ({C18 diacid-γGlu-AEEA-AEEA}-IAQELRRIGDEF-OH), the inhibition was less than 50%.

Consider `CC[C@H](C)[C@H](NC(=O)CCCCCCCCC(=O)O)C(=O)N[C@@H](C)C(=O)N[C@@H](CCC(N)=O)C(=O)N[C@@H](CCC(=O)O)C(=O)N[C@@H](CC(C)C)C(=O)N[C@@H](CCCNC(=N)N)C(=O)N[C@@H](CCCNC(=N)N)C(=O)N[C@H](C(=O)NCC(=O)N[C@H](CC(=O)O)C(=O)N[C@@H](CCC(=O)O)C(=O)N[C@@H](Cc1ccccc1)C(=O)O)[C@@H](C)CC`, for which the inhibition is less than 50%.

What is called inhibition is the drop in the measured response relative to a control, in per cent.
